Where two headings read alike, the source gives them in different places.
What was measured:
in vitro = settings: CD-1, mouse, liver microsomes, pH 7.4
Procedure: To test the metabolic stability of the analogs, an in vitro microsomal stability assay was carried out.
The microsomal stability assay was performed in 96-well format (Perkin-Elmer, StorPlate-96U, PP, 96 well, round bottom). […] A stock solution of the compound to be analyzed (0.8 μL. 5 mM) or ethoxycoumarin (positive control, 0.8 μL, 5 mM) was added and the mixture was warmed to 37° C. for 5 minutes. The mouse microsomes (CD-1, 5 μL, thawed in a 37° C. water bath before use, 20 mg/mL, Life Technologies) were added. At selected time points (0, 15, 30, 45, 60 and 120 minutes) aliquots (15 μL) were withdrawn from the plate and quenched upon addition to cold acetonitrile (60 μL), containing an internal standard (5 μM) in a 96-well plate. The samples were centrifuged at 13,000 rpm for 10 minutes at 4° C. The supernatant (40 μL) was withdrawn and transferred to a sample vial with insert. The samples were analyzed by LC-MS.
LC-MS analysis was performed on a platform comprising a Thermo Scientific Dionex Ultimate 3000 and a Bruker amaZon SL equipped with an electrospray ionization source controlled by Bruker Hystar 3.2. […] The flow rate was maintained at 400 μL/min. The initial flow conditions were 60% solvent A (water containing 0.1% acetic acid) and 40% solvent B (methanol containing 0.1% acetic acid).
Aliquots were taken over the course of two hours and analyzed by HPLG-MS using an internal standard to assess compound stability over time.

[1] = biological target: T1, panel of 60 human kinases (Homo sapiens, UniProt Q9UM73); test: Radiolabeled ATP kinase assay, panel of 60 kinases (Table S5); assay type: biochemical; settings: ALK; 0.1 μM; 10 μM ATP; read-out: % Enzyme Activity (relative to DSMO controls)
T1 construct: purchased Reaction Biology Corp
Summary of the method: (§1)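 Cell-free radiolabeled-ATP kinase assays across a panel of 60 kinases; each compound tested at 0.1 μM and 0.5 μM for inhibition.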

[2] = biological target: T2, panel of 60 human kinases (Homo sapiens, UniProt O60285); test: as above; assay type: biochemical; settings: ARK5/NUAK1; 0.1 μM; 10 μM ATP; read-out: % Enzyme Activity (relative to DSMO controls)
T2 construct: purchased Reaction Biology Corp
T2 sequence (O60285 1-661): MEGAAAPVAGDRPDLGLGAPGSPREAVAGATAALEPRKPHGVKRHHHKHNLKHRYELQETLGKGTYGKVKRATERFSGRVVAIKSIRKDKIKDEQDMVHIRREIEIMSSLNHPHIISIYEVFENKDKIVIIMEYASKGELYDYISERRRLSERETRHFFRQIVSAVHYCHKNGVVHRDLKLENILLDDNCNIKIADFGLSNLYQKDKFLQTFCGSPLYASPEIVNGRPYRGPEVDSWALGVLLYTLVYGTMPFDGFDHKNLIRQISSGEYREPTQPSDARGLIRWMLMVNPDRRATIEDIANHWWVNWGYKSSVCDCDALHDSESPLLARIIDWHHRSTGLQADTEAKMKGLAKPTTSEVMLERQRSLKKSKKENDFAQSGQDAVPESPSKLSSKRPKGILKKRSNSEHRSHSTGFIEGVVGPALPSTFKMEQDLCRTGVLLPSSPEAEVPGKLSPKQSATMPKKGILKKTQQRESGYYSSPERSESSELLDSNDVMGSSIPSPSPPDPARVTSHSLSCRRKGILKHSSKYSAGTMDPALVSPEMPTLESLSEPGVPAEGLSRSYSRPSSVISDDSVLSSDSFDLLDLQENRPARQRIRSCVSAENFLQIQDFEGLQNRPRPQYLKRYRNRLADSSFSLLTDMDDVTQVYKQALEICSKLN
Summary of the method: as §1

[3] = biological target: T3, panel of 60 human kinases (Homo sapiens, UniProt P53779); test: as above; assay type: biochemical; settings: JNK3; 0.1 μM; 10 μM ATP; read-out: % Enzyme Activity (relative to DSMO controls)
T3 construct: purchased Reaction Biology Corp
Summary of the method: as §1

[4] = biological target: T4, panel of 60 human kinases (Homo sapiens, UniProt Q9UQB9); test: as above; assay type: biochemical; settings: Aurora C; 0.1 μM; 10 μM ATP; read-out: % Enzyme Activity (relative to DSMO controls)
T4 construct: purchased Reaction Biology Corp
T4 sequence (Q9UQB9 1-309): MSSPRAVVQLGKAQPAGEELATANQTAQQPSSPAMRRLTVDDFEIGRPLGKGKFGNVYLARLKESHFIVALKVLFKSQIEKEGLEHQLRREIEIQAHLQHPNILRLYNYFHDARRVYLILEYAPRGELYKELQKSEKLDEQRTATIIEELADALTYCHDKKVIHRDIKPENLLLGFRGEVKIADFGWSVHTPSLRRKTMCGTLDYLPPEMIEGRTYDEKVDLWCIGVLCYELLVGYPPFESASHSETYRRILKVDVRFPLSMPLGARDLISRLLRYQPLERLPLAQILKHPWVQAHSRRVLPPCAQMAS
Summary of the method: as §1

[5] = biological target: T5, panel of 60 human kinases (Homo sapiens, UniProt Q16539); test: as above; assay type: biochemical; settings: P38a/MAPK14; 0.1 μM; 10 μM ATP; read-out: % Enzyme Activity (relative to DSMO controls)
T5 construct: purchased Reaction Biology Corp
Summary of the method: as §1

[6] = biological target: T6, panel of 60 human kinases (Homo sapiens, UniProt P21802); test: as above; assay type: biochemical; settings: FGFR2; 0.1 μM; 10 μM ATP; read-out: % Enzyme Activity (relative to DSMO controls)
T6 construct: purchased Reaction Biology Corp
Summary of the method: as §1

[7] = biological target: T7, panel of 60 human kinases (Homo sapiens, UniProt O15264); test: as above; assay type: biochemical; settings: P38d/MAPK13; 0.1 μM; 10 μM ATP; read-out: % Enzyme Activity (relative to DSMO controls)
T7 construct: purchased Reaction Biology Corp
T7 sequence (O15264 1-365): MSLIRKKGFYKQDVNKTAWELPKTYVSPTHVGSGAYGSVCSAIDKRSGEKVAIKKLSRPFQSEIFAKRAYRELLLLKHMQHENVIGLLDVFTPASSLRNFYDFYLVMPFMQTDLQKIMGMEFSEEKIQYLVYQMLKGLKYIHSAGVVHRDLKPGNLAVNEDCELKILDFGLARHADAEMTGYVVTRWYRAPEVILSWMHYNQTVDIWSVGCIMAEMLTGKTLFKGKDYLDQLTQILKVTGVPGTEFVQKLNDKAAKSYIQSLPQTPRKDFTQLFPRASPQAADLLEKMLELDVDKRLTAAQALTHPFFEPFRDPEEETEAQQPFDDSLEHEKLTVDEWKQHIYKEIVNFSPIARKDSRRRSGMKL
Summary of the method: as §1

HGK/MAP4K4 = HGK/MAP4K4 (Homo sapiens, UniProt O95819); test: Radiolabeled ATP kinase assay (Reaction Biology Corp.), HGK; assay type: biochemical; set-up: purchased Reaction Biology Corp; settings: 10 μM ATP, read-out: % Enzyme Activity (relative to DMSO controls), HGK/MAP4K4, Data 1; for remaining activity at 0.025 µM: [Cmpd] 0.025 μM; for remaining activity at 0.1 µM: [Cmpd] 0.1 μM
Procedure: (§2) Meanwhile, the same analogs were analyzed in a radiolabeled ATP assay (10 μM ATP; Reaction Biology Corp.) to compare the extent to which they could inhibit the activity of HGK, MLK1, or MLK3 in a cell-free environment (Table S3 and S4).

MLK3/MAP3K11 = biological target: T8, MLK3/MAP3K11 (Homo sapiens, UniProt Q16584); test: Radiolabeled ATP kinase assay (Reaction Biology Corp.), MLK3; assay type: biochemical; settings: for % Enzyme Activity Remaining (relative to DMSO controls), MLK3/MAP3K11, Data 1 / % Enzyme Activity Remaining (relative to DMSO controls), MLK3/MAP3K11, Data 2: [Cmpd] 0.1 μM, 10 μM ATP
T8 construct: purchased Reaction Biology Corp
Procedure: as §2

[8] = system: human ES motor neurons carrying the ALS-causing SOD1^A4V mutation; test: cells; assay type: cell-based; settings: 72 h, 72 h; for EC50 / Emax: CPA 33 μM; for EC50: read-out: EC50; for viability at 1 µM: CPA (33 μM) + compound (1 μM), read-out: Motor Neuron Survival, % untreated; for Emax: read-out: Emax (MN survival % untreated)
Procedure: Next, survival assays were performed with all the analogs at once to generate a low-variability dataset. All compounds were evaluated at concentrations ranging from 0.1-3.0 μM (five-point dilution) in three technical replicates and two biological replicates.

T5 sequence (Q16539 whole entry): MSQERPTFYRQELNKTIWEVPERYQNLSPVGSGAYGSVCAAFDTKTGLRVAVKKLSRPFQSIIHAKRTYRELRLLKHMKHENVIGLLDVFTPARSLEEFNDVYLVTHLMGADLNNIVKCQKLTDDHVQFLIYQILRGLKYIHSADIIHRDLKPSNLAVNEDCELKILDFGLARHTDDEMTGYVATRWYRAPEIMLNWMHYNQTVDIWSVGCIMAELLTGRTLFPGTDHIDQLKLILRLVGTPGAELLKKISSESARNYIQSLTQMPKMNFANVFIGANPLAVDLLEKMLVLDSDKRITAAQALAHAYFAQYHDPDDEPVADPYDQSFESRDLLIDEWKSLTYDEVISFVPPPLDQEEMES
Sequence of HGK/MAP4K4 (O95819 whole entry): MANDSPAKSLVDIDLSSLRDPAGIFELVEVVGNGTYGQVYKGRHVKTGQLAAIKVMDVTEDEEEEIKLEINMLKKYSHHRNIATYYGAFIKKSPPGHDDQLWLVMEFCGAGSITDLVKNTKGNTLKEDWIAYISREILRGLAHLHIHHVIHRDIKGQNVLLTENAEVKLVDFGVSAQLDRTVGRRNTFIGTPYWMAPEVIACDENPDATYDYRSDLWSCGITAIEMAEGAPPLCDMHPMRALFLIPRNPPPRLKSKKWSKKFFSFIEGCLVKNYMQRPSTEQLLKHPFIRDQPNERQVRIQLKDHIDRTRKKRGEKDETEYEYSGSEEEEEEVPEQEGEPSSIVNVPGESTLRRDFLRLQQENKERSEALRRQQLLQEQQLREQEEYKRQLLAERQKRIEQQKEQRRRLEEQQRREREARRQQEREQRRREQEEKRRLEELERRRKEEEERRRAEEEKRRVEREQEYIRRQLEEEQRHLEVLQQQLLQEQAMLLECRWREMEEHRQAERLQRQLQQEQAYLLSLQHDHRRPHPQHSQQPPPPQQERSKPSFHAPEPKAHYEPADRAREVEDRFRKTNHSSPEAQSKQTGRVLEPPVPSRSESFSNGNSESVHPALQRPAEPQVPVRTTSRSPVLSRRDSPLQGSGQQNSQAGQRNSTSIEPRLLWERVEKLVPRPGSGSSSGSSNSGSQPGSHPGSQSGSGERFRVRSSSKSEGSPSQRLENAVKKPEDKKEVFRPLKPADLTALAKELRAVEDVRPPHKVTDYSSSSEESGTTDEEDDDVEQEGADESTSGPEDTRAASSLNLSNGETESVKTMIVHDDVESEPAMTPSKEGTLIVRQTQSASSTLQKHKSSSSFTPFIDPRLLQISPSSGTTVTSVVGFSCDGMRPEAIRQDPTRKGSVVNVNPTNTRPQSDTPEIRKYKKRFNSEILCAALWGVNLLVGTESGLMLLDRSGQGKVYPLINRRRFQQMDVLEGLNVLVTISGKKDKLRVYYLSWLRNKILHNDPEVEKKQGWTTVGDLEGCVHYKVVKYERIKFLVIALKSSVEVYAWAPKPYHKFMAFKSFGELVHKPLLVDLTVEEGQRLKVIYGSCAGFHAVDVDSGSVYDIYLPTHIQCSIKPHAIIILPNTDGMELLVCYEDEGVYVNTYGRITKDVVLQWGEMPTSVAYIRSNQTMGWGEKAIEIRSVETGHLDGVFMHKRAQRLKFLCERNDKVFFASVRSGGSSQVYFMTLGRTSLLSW
T1 sequence (Q9UM73 19-1620): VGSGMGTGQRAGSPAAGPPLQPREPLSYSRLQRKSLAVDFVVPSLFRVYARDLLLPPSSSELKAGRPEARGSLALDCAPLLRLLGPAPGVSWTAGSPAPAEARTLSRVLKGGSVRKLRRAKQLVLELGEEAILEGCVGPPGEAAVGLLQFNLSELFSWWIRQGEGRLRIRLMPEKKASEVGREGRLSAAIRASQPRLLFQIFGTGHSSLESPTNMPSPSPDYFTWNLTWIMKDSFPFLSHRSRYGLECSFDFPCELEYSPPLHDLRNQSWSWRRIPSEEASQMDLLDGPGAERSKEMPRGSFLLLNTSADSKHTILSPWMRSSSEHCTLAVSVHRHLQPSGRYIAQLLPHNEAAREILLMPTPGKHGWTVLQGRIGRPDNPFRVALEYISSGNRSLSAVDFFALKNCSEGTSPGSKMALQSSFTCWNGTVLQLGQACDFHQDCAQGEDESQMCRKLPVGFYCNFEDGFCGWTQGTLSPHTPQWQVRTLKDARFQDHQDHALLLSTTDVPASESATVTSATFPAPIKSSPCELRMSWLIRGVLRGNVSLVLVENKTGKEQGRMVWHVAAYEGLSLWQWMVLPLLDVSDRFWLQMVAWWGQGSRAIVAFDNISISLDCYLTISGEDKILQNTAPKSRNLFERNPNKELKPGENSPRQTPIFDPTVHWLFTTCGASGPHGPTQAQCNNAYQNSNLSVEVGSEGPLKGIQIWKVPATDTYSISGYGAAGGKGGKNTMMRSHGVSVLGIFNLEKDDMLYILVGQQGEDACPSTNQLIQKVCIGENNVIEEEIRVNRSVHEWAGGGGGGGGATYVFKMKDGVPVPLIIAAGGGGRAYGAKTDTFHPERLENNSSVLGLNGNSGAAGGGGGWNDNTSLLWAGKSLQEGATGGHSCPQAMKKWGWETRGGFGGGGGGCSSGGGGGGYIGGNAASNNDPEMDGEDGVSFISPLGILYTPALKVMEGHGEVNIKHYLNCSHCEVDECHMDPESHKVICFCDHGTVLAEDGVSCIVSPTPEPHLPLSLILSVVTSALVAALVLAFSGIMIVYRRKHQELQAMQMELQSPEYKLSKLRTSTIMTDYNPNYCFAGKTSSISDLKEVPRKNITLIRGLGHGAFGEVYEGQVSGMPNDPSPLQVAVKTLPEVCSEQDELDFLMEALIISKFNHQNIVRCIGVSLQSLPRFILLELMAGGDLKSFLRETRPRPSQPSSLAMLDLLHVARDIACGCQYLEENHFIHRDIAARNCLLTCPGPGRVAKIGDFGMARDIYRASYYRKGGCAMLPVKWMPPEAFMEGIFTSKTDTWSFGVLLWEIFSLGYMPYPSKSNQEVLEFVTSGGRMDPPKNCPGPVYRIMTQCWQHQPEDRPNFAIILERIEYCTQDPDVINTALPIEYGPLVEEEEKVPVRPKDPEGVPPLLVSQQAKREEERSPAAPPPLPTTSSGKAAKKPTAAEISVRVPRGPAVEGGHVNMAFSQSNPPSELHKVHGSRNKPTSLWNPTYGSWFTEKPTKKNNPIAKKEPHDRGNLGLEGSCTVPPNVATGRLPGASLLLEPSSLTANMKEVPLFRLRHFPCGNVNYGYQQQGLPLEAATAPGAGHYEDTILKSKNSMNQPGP
T6 sequence (P21802 22-821): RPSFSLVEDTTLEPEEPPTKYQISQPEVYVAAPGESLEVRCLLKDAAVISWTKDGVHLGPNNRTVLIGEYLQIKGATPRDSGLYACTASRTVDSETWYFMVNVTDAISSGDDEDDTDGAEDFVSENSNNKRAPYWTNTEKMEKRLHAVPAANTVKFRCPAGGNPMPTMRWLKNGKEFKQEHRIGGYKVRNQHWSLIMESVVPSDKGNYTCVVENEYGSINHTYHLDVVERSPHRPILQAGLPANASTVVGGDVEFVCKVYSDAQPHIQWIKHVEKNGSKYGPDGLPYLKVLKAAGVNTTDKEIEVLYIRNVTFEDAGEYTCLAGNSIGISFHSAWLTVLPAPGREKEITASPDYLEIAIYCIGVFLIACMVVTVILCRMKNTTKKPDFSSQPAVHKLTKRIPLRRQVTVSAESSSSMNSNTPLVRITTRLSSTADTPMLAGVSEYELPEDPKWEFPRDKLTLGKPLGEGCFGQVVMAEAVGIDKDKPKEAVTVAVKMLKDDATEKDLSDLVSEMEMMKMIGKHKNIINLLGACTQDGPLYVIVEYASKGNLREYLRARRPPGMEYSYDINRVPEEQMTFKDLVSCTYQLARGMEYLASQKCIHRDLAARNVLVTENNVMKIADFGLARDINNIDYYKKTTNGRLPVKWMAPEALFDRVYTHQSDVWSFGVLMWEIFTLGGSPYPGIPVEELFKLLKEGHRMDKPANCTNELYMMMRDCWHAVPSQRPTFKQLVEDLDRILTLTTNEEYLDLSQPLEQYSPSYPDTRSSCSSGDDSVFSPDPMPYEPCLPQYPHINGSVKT
T3 sequence (P53779 whole entry): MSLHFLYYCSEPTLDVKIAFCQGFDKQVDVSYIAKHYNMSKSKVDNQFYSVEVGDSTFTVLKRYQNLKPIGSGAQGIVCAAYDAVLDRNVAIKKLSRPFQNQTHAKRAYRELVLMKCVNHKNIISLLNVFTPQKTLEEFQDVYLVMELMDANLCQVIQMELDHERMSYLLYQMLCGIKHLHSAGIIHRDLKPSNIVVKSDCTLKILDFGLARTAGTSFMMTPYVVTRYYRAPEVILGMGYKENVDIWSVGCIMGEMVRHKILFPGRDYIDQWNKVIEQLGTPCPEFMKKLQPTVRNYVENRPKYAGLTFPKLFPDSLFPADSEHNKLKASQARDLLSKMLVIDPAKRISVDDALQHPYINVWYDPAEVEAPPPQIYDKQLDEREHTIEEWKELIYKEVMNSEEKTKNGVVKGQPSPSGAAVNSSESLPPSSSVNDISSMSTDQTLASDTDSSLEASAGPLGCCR

Row | SMILES | half-life at 20 μM (in vitro) | remaining activity at 0.1 µM [1] | remaining activity at 0.1 µM [2] | remaining activity at 0.1 µM [3] | remaining activity at 0.1 µM [4] | remaining activity at 0.1 µM [5] | remaining activity at 0.1 µM [6] | remaining activity at 0.1 µM [7] | remaining activity at 0.025 µM (HGK/MAP4K4) | remaining activity at 0.1 µM (HGK/MAP4K4) | remaining activity at 0.1 µM (MLK3/MAP3K11; 0.1 μM) | EC50 ([8]; Homo sapiens, Neuron) | viability at 1 µM ([8]; Homo sapiens, Neuron) | Emax ([8]; Homo sapiens, Neuron) | % Enzyme Activity Remaining (relative to DMSO controls), MLK3/MAP3K11, Data 1 (MLK3/MAP3K11) | % Enzyme Activity Remaining (relative to DMSO controls), MLK3/MAP3K11, Data 2 (MLK3/MAP3K11) | EC50 [8]
1 | CN1CCN(Cc2ccc(-c3cnc4[nH]cc(-c5ccc6[nH]ccc6c5)c4c3)cc2)CC1 [Compound 1, 3-(1H-Indol-5-yl)-5-(4-((4-methylpiperazin-1-yl)methyl)phenyl)-1H-pyrrolo[2,3-b]pyridine, reference compound] | 7.8 min | 25.4% | 5.96% | 122% | 82.8% | 108% | 52.9% | 112% | 18.5% | 5.23% | 10.5% | 215 nM | 102% | 102% | – | – | –
2 | CN1CCN(Cc2ccc(-c3cnc4[nH]cc(-c5cnn(Cc6ccccc6)c5)c4c3)cc2)CC1 [Compound 7ah, 3-(1-Benzyl-1H-pyrazol-4-yl)-5-(4-((4-methylpiperazin-1-yl)methyl)phenyl)-1H-pyrrolo[2,3-b]pyridine] | – | 28.8% | 0.03% | 81.8% | 78.5% | 109% | 73.8% | 109% | 42.8% | 3.56% | – | 234 nM | 67.1% | 67.1% | 32.02% | 32.11% | –
3 | Cc1nn(C)c(C)c1-c1c[nH]c2ncc(-c3ccc(CN4CCN(C)CC4)cc3)cc12 [Compound 7ai, 5-(4-((4-Methylpiperazin-1-yl)methyl)phenyl)-3-(1,3,5-trimethyl-1H-pyrazol-4-yl)-1H-pyrrolo[2,3-b]pyridine] | – | 76.2% | 21.6% | 107% | 122% | 98.2% | 80.9% | 106% | 105% | 106% | – | 3230 nM | – | 86.5% | 93.11% | 88.00% | –
4 | CN1CCN(Cc2ccc(-c3cnc4[nH]cc(-c5ccccc5Cl)c4c3)cc2)CC1 [Compound 7as, 3-(2-Chlorophenyl)-5-(4-((4-methylpiperazin-1-yl)methyl)phenyl)-1H-pyrrolo[2,3-b]pyridine] | – | 70.5% | 4.44% | 111% | 94.2% | 113% | 41.1% | 113% | 17.6% | 3.61% | – | 329 nM | 80.8% | 80.8% | 49.99% | 51.55% | –
5 | CN1CCN(Cc2ccc(-c3cnc4[nH]cc(-c5ccc6c(c5)OCCO6)c4c3)cc2)CC1 [Compound 7d, 3-(2,3-Dihydrobenzo[b][1,4]dioxin-6-yl)-5-(4-((4-methylpiperazin-1-yl)methyl)phenyl)-1H-pyrrolo[2,3-b]pyridine] | – | 73.8% | 20.8% | 120% | 92.3% | 102% | 70.4% | 98.6% | 19.6% | 4.25% | – | 327 nM | 72.9% | 72.9% | 25.04% | 18.84% | –
6 | CN1CCN(Cc2ccc(-c3cnc4[nH]cc(-c5ccncc5)c4c3)cc2)CC1 [Compound 7n, 5-(4-((4-Methylpiperazin-1-yl)methyl)phenyl)-3-(pyridin-4-yl)-1H-pyrrolo[2,3-b]pyridine] | – | 94.1% | 39.3% | 115% | 101% | 101% | 94% | 105% | 65.7% | 29.9% | – | 483 nM | 36.3% | 36.3% | 91.26% | 92.62% | –
7 | CN1CCN(Cc2ccc(-c3cnc4[nH]cc(-c5ccoc5)c4c3)cc2)CC1 [Compound 7w, 3-(Furan-3-yl)-5-(4-((4-methylpiperazin-1-yl)methyl)phenyl)-1H-pyrrolo[2,3-b]pyridine] | – | 89.7% | 14.8% | 113% | 94.3% | 110% | 77.8% | 112% | 29% | 4.46% | – | 1370 nM | 46.6% | 0.42% | 75.10% | 76.98% | –
8 | OCCN1CCN(Cc2ccc(-c3cnc4[nH]cc(-c5cccc(Cl)c5)c4c3)cc2)CC1 [Compound 12k, 2-(4-(4-(3-(3-Chlorophenyl)-1H-pyrrolo[2,3-b]pyridin-5-yl)benzyl)piperazin-1-yl)ethan-1-ol] | > 120 min | – | – | – | – | – | – | – | – | – | – | 99 nM | – | 112% | – | – | 100 nM

From patent US12227500B2, “Substituted pyrrolo[2,3-b]pyridines for suppressing toxic endoplasmic reticulum stress” (THE TRUSTEES OF COLUMBIA UNIVERSITY IN THE CITY OF NEW YORK, priority 2018, dated 2025)
